Assay results taken from PubChem BioAssay (NCI).
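Method: 48-hour compound exposure of cells in 96-well plates, five concentrations, linear interpolation of endpoints. GI50: concentration for 50% inhibition of growth. At the TGI there is no net growth.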

What was measured:
Assay in all cases: DTP human tumour cell line panel, 48 h
SF-295 CNS = tested on: SF-295 CNS
PC-3 prostate = tested on: PC-3 prostate
MDA-MB-231 breast = tested on: MDA-MB-231 breast
K-562 leukemia = tested on: K-562 leukemia
U251 CNS = tested on: U251 CNS
786-0 renal = tested on: 786-0 renal
T-47D breast = tested on: T-47D breast
OVCAR-3 ovarian = tested on: OVCAR-3 ovarian
COLO 205 colon = tested on: COLO 205 colon
A549 NSCLC = tested on: A549 NSCLC
CAKI-1 renal = tested on: CAKI-1 renal
SK-MEL-2 melanoma = tested on: SK-MEL-2 melanoma
CCRF-CEM leukemia = tested on: CCRF-CEM leukemia
HOP-92 NSCLC = tested on: HOP-92 NSCLC
MDA-MB-435 = tested on: MDA-MB-435
HCC-2998 colon = tested on: HCC-2998 colon
IGROV1 ovarian = tested on: IGROV1 ovarian
A498 renal = tested on: A498 renal
RXF 393 renal = tested on: RXF 393 renal
NCI-H226 lung = tested on: NCI-H226 lung
RPMI-8226 leukemia = tested on: RPMI-8226 leukemia
KM12 colon = tested on: KM12 colon
NCI-H23 lung = tested on: NCI-H23 lung
MCF7 breast = tested on: MCF7 breast
BT-549 breast = tested on: BT-549 breast
DU-145 prostate = tested on: DU-145 prostate
EKVX NSCLC = tested on: EKVX NSCLC
MOLT-4 leukemia = tested on: MOLT-4 leukemia
SNB-75 CNS = tested on: SNB-75 CNS
HS 578T breast = tested on: HS 578T breast
OVCAR-4 ovarian = tested on: OVCAR-4 ovarian
SF-268 CNS = tested on: SF-268 CNS
MALME-3M melanoma = tested on: MALME-3M melanoma
LOX IMVI melanoma = tested on: LOX IMVI melanoma
HCT-116 colon = tested on: HCT-116 colon
SW-620 colon = tested on: SW-620 colon
SNB-19 CNS = tested on: SNB-19 CNS
M14 melanoma = tested on: M14 melanoma
UO-31 renal = tested on: UO-31 renal
NCI-H522 lung = tested on: NCI-H522 lung
NCI/ADR-RES ovarian = tested on: NCI/ADR-RES ovarian
SR leukemia = tested on: SR leukemia
SF-539 CNS = tested on: SF-539 CNS
SK-MEL-5 melanoma = tested on: SK-MEL-5 melanoma
HT29 colon = tested on: HT29 colon
TK-10 renal = tested on: TK-10 renal
OVCAR-5 ovarian = tested on: OVCAR-5 ovarian
NCI-H460 lung = tested on: NCI-H460 lung
SK-MEL-28 melanoma = tested on: SK-MEL-28 melanoma
SK-OV-3 ovarian = tested on: SK-OV-3 ovarian
ACHN renal = tested on: ACHN renal
SN12C renal = tested on: SN12C renal
OVCAR-8 ovarian = tested on: OVCAR-8 ovarian
UACC-62 melanoma = tested on: UACC-62 melanoma
HCT-15 colon = tested on: HCT-15 colon
HOP-62 NSCLC = tested on: HOP-62 NSCLC
HL-60(TB) leukemia = tested on: HL-60(TB) leukemia
UACC-257 melanoma = tested on: UACC-257 melanoma

`CC(=O)c1ccc2c(c1)N(CCCN(C)C)c1ccccc1S2` showed a GI50 (SF-295 CNS) of 11.9 µM, a TGI (SF-295 CNS) of 25.5 µM and a GI50 (PC-3 prostate) of 14.2 µM. It also gave a TGI (PC-3 prostate) of 30.2 µM, a GI50 (MDA-MB-231 breast) of 11.1 µM and a TGI (MDA-MB-231 breast) of 24.8 µM. For the same compound, the GI50 (K-562 leukemia) was 15.9 µM, the TGI (K-562 leukemia) was 83.7 µM and the GI50 (U251 CNS) was 15.1 µM. The TGI (U251 CNS) was 32.1 µM, the GI50 (786-0 renal) was 12 µM and the TGI (786-0 renal) was 25 µM. The GI50 (T-47D breast) was 16.6 µM, the TGI (T-47D breast) was 39.6 µM and the GI50 (OVCAR-3 ovarian) was 16.5 µM. The TGI (OVCAR-3 ovarian) was 31.4 µM, the GI50 (COLO 205 colon) was 3.32 µM and the TGI (COLO 205 colon) was 11.7 µM. The GI50 (A549 NSCLC) was 17.7 µM, the TGI (A549 NSCLC) was 34.2 µM and the GI50 (CAKI-1 renal) was 12.6 µM. It also gave a TGI (CAKI-1 renal) of 26.4 µM, a GI50 (SK-MEL-2 melanoma) of 18.1 µM and a TGI (SK-MEL-2 melanoma) of 35.7 µM. For the same compound, the GI50 (CCRF-CEM leukemia) was 18.5 µM, the TGI (CCRF-CEM leukemia) was 47.3 µM and the GI50 (HOP-92 NSCLC) was 11.3 µM. It also gave a TGI (HOP-92 NSCLC) of 53.7 µM, a GI50 (MDA-MB-435) of 11.8 µM and a TGI (MDA-MB-435) of 25.7 µM. It also gave a GI50 (HCC-2998 colon) of 14.4 µM, a TGI (HCC-2998 colon) of 27.6 µM and a GI50 (IGROV1 ovarian) of 18.8 µM. It also gave a TGI (IGROV1 ovarian) of 44 µM, a GI50 (A498 renal) of 11.4 µM and a TGI (A498 renal) of 25.1 µM. The GI50 (RXF 393 renal) was 8.86 µM, the TGI (RXF 393 renal) was 22 µM and the GI50 (NCI-H226 lung) was 21.3 µM. For the same compound, the TGI (NCI-H226 lung) was 55.1 µM, the GI50 (RPMI-8226 leukemia) was 18 µM and the TGI (RPMI-8226 leukemia) was 43.3 µM. For the same compound, the GI50 (KM12 colon) was 15.7 µM, the TGI (KM12 colon) was 29.6 µM and the GI50 (NCI-H23 lung) was 17.1 µM. The TGI (NCI-H23 lung) was 44.4 µM, the GI50 (MCF7 breast) was 16.6 µM and the TGI (MCF7 breast) was 34.5 µM. The GI50 (BT-549 breast) was 12.7 µM, the TGI (BT-549 breast) was 25.8 µM and the GI50 (DU-145 prostate) was 17.1 µM. It also gave a TGI (DU-145 prostate) of 34.3 µM, a GI50 (EKVX NSCLC) of 13.1 µM and a TGI (EKVX NSCLC) of 30.9 µM. It also gave a GI50 (MOLT-4 leukemia) of 16.8 µM, a TGI (MOLT-4 leukemia) of 41.2 µM and a GI50 (SNB-75 CNS) of 1.99 µM. For the same compound, the TGI (SNB-75 CNS) was 16.4 µM, the GI50 (HS 578T breast) was 11.6 µM and the TGI (HS 578T breast) was 27.8 µM. For the same compound, the GI50 (OVCAR-4 ovarian) was 18.5 µM, the TGI (OVCAR-4 ovarian) was 65.2 µM and the GI50 (SF-268 CNS) was 13.5 µM. It also gave a TGI (SF-268 CNS) of 29.6 µM, a GI50 (MALME-3M melanoma) of 17.9 µM and a TGI (MALME-3M melanoma) of 38.3 µM. For the same compound, the GI50 (LOX IMVI melanoma) was 12.4 µM, the TGI (LOX IMVI melanoma) was 25.4 µM and the GI50 (HCT-116 colon) was 11.3 µM. For the same compound, the TGI (HCT-116 colon) was 23.7 µM, the GI50 (SW-620 colon) was 16.5 µM and the TGI (SW-620 colon) was 31.8 µM. It also gave a GI50 (SNB-19 CNS) of 18.6 µM, a TGI (SNB-19 CNS) of 43.2 µM and a GI50 (M14 melanoma) of 14.9 µM. It also gave a TGI (M14 melanoma) of 30 µM, a GI50 (UO-31 renal) of 13.5 µM and a TGI (UO-31 renal) of 29.1 µM. For the same compound, the GI50 (NCI-H522 lung) was 16.2 µM, the TGI (NCI-H522 lung) was 34.1 µM and the GI50 (NCI/ADR-RES ovarian) was 13.6 µM. It also gave a TGI (NCI/ADR-RES ovarian) of 28.3 µM, a GI50 (SR leukemia) of 18.7 µM and a TGI (SR leukemia) of 49.5 µM. It also gave a GI50 (SF-539 CNS) of 13.7 µM, a TGI (SF-539 CNS) of 28.2 µM and a GI50 (SK-MEL-5 melanoma) of 13.2 µM. For the same compound, the TGI (SK-MEL-5 melanoma) was 26.2 µM, the GI50 (HT29 colon) was 11.2 µM and the TGI (HT29 colon) was 28.4 µM. It also gave a GI50 (TK-10 renal) of 14.7 µM, a TGI (TK-10 renal) of 29.5 µM and a GI50 (OVCAR-5 ovarian) of 13.9 µM. For the same compound, the TGI (OVCAR-5 ovarian) was 27.9 µM, the GI50 (NCI-H460 lung) was 18 µM and the TGI (NCI-H460 lung) was 33.8 µM. The GI50 (SK-MEL-28 melanoma) was 16.2 µM, the TGI (SK-MEL-28 melanoma) was 32 µM and the GI50 (SK-OV-3 ovarian) was 13.1 µM. For the same compound, the TGI (SK-OV-3 ovarian) was 26.3 µM, the GI50 (ACHN renal) was 15.5 µM and the TGI (ACHN renal) was 30.6 µM. It also gave a GI50 (SN12C renal) of 14.5 µM, a TGI (SN12C renal) of 30.8 µM and a GI50 (OVCAR-8 ovarian) of 17.7 µM. It also gave a TGI (OVCAR-8 ovarian) of 37.4 µM, a GI50 (UACC-62 melanoma) of 14.9 µM and a TGI (UACC-62 melanoma) of 29.1 µM. The GI50 (HCT-15 colon) was 16 µM, the TGI (HCT-15 colon) was 31.2 µM and the GI50 (HOP-62 NSCLC) was 15.6 µM. It also gave a TGI (HOP-62 NSCLC) of 31.6 µM, a GI50 (HL-60(TB) leukemia) of 14 µM and a TGI (HL-60(TB) leukemia) of 41 µM. It also gave a GI50 (UACC-257 melanoma) of 18.7 µM and a TGI (UACC-257 melanoma) of 37.8 µM.
